# Data reported in patent US20040192910A1, “Sulfonylamino derivatives useful as herbicides” (priority 2001, published 2004).
# Legend:
# Format in all cases: in vivo
# Design in all cases: key: 1=total damage; 9=no action
# [1] = tested on: Brachiaria; test: Post-emergence herbicidal action; settings: 250 g a.i./ha (500 litres water/ha), sprayed at 4- to 6-leaf stage, evaluated after about 18 days; scale of nine ratings, 1 to 4 = good to very good action
# Source text: (§1) Post-Emergence Herbicidal Action
# (§2) Monocotyledonous and dicotyledonous test plants are raised in a greenhouse in plastic pots containing standard soil and at the 4- to 6-leaf stage are sprayed with an aqueous suspension of the test compounds of formula I (prepared from a 25% wettable powder (Example F3, b) according to WO 97/34485) or with an emulsion of the test compounds of formula I (prepared from a 25% emulsifiable concentrate (Example F1, c) according to WO 97/34485) at a rate of application corresponding to 250 g a.i./ha (500 litres water/ha). The test plants are then grown on in the greenhouse under optimum conditions. After a test duration of about 18 days, the test is evaluated in accordance with a scale of nine ratings (1=total damage, 9=no action). Ratings of from 1 to 4 (especially from 1 to 3) indicate good to very good herbicidal action.
# [2] = tested on: Panicum; test: Post-emergence herbicidal action; settings: 250 g a.i./ha (500 litres water/ha), sprayed at 4- to 6-leaf stage, evaluated after about 18 days; scale of nine ratings, 1 to 4 = good to very good action
# Source text: as §1, §2
# [3] = tested on: Amarantus; test: Post-emergence herbicidal action; settings: 250 g a.i./ha (500 litres water/ha), sprayed at 4- to 6-leaf stage, evaluated after about 18 days; scale of nine ratings, 1 to 4 = good to very good action
# Source text: as §1, §2
# [4] = tested on: Abutilon; test: Post-emergence herbicidal action; settings: 250 g a.i./ha (500 litres water/ha), sprayed at 4- to 6-leaf stage, evaluated after about 18 days; scale of nine ratings, 1 to 4 = good to very good action
# Source text: as §1, §2
# [5] = tested on: Digitaria; test: Post-emergence herbicidal action; settings: 250 g a.i./ha (500 litres water/ha), sprayed at 4- to 6-leaf stage, evaluated after about 18 days; scale of nine ratings, 1 to 4 = good to very good action
# Source text: as §1, §2
# [6] = tested on: Chenopodium; test: Post-emergence herbicidal action; settings: 250 g a.i./ha (500 litres water/ha), sprayed at 4- to 6-leaf stage, evaluated after about 18 days; scale of nine ratings, 1 to 4 = good to very good action
# Source text: as §1, §2
# [7] = tested on: Stellaria; test: Post-emergence herbicidal action; settings: 250 g a.i./ha (500 litres water/ha), sprayed at 4- to 6-leaf stage, evaluated after about 18 days; scale of nine ratings, 1 to 4 = good to very good action
# Source text: as §1, §2
# [8] = tested on: Setaria; test: Post-emergence herbicidal action; settings: 250 g a.i./ha (500 litres water/ha), sprayed at 4- to 6-leaf stage, evaluated after about 18 days; scale of nine ratings, 1 to 4 = good to very good action
# Source text: as §1, §2
# [9] = tested on: Brachiaria; test: Pre-emergence herbicidal action; settings: 250 g a.i./ha (500 litres water/ha), sprayed immediately after sowing, evaluated after 3 weeks; scale of nine ratings, 1 to 4 = good to very good action
# Source text: (§3) Herbicidal Action Prior to Emergence of the Plants (Pre-Emergence Action) Monocotyledonous and dicotyledonous test plants are sown in standard soil in plastic pots. Immediately after sowing, an aqueous suspension (prepared from a 25% wettable powder (Example F3, b) according to WO 97/34485) or an emulsion (prepared from a 25% emulsifiable concentrate (Example F1, c)) of the test compounds is applied by spraying at a rate of application corresponding to 250 […]). The test plants are then cultivated in a greenhouse under optimum conditions.
# [10] = tested on: Panicum; test: Pre-emergence herbicidal action; settings: 250 g a.i./ha (500 litres water/ha), sprayed immediately after sowing, evaluated after 3 weeks; scale of nine ratings, 1 to 4 = good to very good action
# Source text: as §3
# [11] = tested on: Amarantus; test: Pre-emergence herbicidal action; settings: 250 g a.i./ha (500 litres water/ha), sprayed immediately after sowing, evaluated after 3 weeks; scale of nine ratings, 1 to 4 = good to very good action
# Source text: as §3
# [12] = tested on: Echinochloa; test: Pre-emergence herbicidal action; settings: 250 g a.i./ha (500 litres water/ha), sprayed immediately after sowing, evaluated after 3 weeks; scale of nine ratings, 1 to 4 = good to very good action
# Source text: as §3
# [13] = tested on: Abutilon; test: Pre-emergence herbicidal action; settings: 250 g a.i./ha (500 litres water/ha), sprayed immediately after sowing, evaluated after 3 weeks; scale of nine ratings, 1 to 4 = good to very good action
# Source text: as §3
# [14] = tested on: Digitaria; test: Pre-emergence herbicidal action; settings: 250 g a.i./ha (500 litres water/ha), sprayed immediately after sowing, evaluated after 3 weeks; scale of nine ratings, 1 to 4 = good to very good action
# Source text: as §3
# [15] = tested on: Chenopodium; test: Pre-emergence herbicidal action; settings: 250 g a.i./ha (500 litres water/ha), sprayed immediately after sowing, evaluated after 3 weeks; scale of nine ratings, 1 to 4 = good to very good action
# Source text: as §3
# [16] = tested on: Euphoria; test: Pre-emergence herbicidal action; settings: 250 g a.i./ha (500 litres water/ha), sprayed immediately after sowing, evaluated after 3 weeks; scale of nine ratings, 1 to 4 = good to very good action
# Source text: as §3
SMILES,"Post-emergence action, rating, Brachiaria [1]","Post-emergence action, rating, Panicum [2]","Post-emergence action, rating, Amarantus [3]","Post-emergence action, rating, Abutilon [4]","Post-emergence action, rating, Digitaria [5]","Post-emergence action, rating, Chenopodium [6]","Post-emergence action, rating, Stellaria [7]","Post-emergence action, rating, Setaria [8]","Pre-emergence action, rating, Brachiaria [9]","Pre-emergence action, rating, Panicum [10]","Pre-emergence action, rating, Amarantus [11]","Pre-emergence action, rating, Echinochloa [12]","Pre-emergence action, rating, Abutilon [13]","Pre-emergence action, rating, Digitaria [14]","Pre-emergence action, rating, Chenopodium [15]","Pre-emergence action, rating, Euphoria [16]"
"Cc1nc(C(F)(F)F)ccc1C(=O)C1=C(Cl)C(C)(C)C(=O)C(C)(C)C1=NS(C)(=O)=O [1.001, N-[3-chloro-4,4,6,6-tetramethyl-2-(2-methyl-6-trifluoromethyl-pyridine-3-carbonyl)-5-oxo-cyclohex-2-en-ylidene]-methanesulfonamide]",1,1,2,2,1,2,2,1,,,,,,,,
"Cc1nc(C(F)(F)F)ccc1C(=O)C1=C(Cl)C(C)(C)C(=O)C(C)(C)C1=NS(=O)(=O)c1cccnc1F [1.026, N-[3-chloro-5-oxo-4,4,6,6-tetramethyl-2-(2-methyl-6-trifluoromethyl-pyridine-3-carbonyl)-cyclohex-2-en-ylidene]-3-(2′-fluoropyridyl)sulfonamide]",2,1,1,1,1,1,2,1,1,1,1,1,1,1,1,2
Cc1nc(C(F)(F)F)ccc1C(=O)C1=C(Cl)C(C)(C)C(=O)C(C)(C)C1=NS(=O)(=O)c1ccccc1 [1.027],2,2,2,1,2,1,1,1,1,1,1,1,1,1,1,1
"C=CS(=O)(=O)N=C1C(C(=O)c2ccc(C(F)(F)F)nc2C)=C(Cl)C(C)(C)C(=O)C1(C)C [1.028, N-[3-chloro-3-oxo-4,4,6,6-tetramethyl-2-(2-methyl-6-trifluoromethyl-pyridine-3-carbonyl)-cyclohex-2-en-ylidene]-vinylsulfonamide]",2,1,2,1,1,1,1,1,1,1,1,1,1,3,1,2
"CSC1=C(C(=O)c2ccc(C(F)(F)F)nc2C)C(=NS(=O)(=O)c2cccnc2F)C(C)(C)C(=O)C1(C)C [1.078, N-[3-methylthio-5-oxo-4,4,6,6-tetramethyl-2-(2-methyl-6-trifluoromethyl-pyridine-3-carbonyl)-cyclohex-2-en-ylidene]-3-(2′-fluoropyridyl)sulfonamide]",3,1,2,1,1,1,3,2,2,1,1,1,1,1,1,2
CSC1=C(C(=O)c2ccc(C(F)(F)F)nc2C)C(=NS(=O)(=O)c2ccccc2)C(C)(C)C(=O)C1(C)C [1.079],2,2,2,2,2,1,1,2,1,1,1,1,1,1,1,2
